Here are results for 28 compounds from article PMC7588595, “Small-molecule active pharmaceutical ingredients of approved cancer therapeutics inhibit human aspartate/asparagine-β-hydroxylase” (Bioorganic & Medicinal Chemistry, 2020).

The target of the assay is T1, human AspH (His6-AspH315–758) (Homo sapiens, UniProt Q12797).
T1 construct: N-Terminally His6-tagged human AspH315–758 (His6-AspH315–758) was produced in Escherichia coli BL21 (DE3) cells; made in house; host or cells: Escherichia coli BL21 (DE3), pET-28a(+) vector
T1 sequence (Q12797 315-758): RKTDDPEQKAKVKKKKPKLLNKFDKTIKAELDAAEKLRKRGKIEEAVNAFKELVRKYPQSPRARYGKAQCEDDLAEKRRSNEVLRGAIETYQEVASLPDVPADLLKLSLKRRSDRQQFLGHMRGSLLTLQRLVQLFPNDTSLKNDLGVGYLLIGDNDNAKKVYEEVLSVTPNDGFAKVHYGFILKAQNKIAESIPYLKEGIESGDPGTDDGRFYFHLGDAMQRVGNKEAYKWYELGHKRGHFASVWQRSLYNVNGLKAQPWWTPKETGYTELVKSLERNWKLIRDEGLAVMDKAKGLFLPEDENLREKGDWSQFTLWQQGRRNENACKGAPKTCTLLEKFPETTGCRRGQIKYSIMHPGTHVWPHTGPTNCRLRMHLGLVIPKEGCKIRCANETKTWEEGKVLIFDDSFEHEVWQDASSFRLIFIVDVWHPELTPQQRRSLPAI
Nature of the assay: SPE-MS AspH inhibition assay (hFX-CP101-119 substrate hydroxylation). Type of assay: biochemical. The settings on record: AspH-inhibitor screening; for Plate 1 (% inhibition): 384-well Plate 1; for Plate 1 (% conversion): 384-well Plate 1, substrate conversion; for Plate 1-duplicate (% conversion): substrate conversion.

Take `Cn1cc(C[C@@H](N)C(=O)O)c2ccccc21` [1-methyl-D-tryptophan, 95%]: the “Plate 1 (% inhibition)” value came out at 6.32%, the “Plate 1 (% conversion)” value is listed as 46.83%, the “Plate 1-duplicate (% inhibition)” value worked out at 9.06% and the “Plate 1-duplicate (% conversion)” value stood at 47.55%.
For `COc1cc2c(cc1O)CC[C@@H]1[C@@H]2CC[C@]2(C)[C@@H](O)CC[C@@H]12` [2-methoxyestradiol (Panzem)], in that order: 5.63%, 47.15%, 3.64% and 50.24%.
For `CC/C(=C(\c1ccc(O)cc1)c1ccc(OCCN(C)C)cc1)c1ccccc1` [4-hydroxytamoxifen], in that order: -45.98%, 70.98%, -42.66% and 73.20%.
The matching figures for `C=CCNC1=C2C[C@@H](C)C[C@H](OC)[C@H](O)[C@@H](C)/C=C(\C)[C@H](OC(N)=O)[C@@H](OC)/C=C\C=C(/C)C(=O)NC(=CC1=O)C2=O` [17-AAG (Tanespimycin, Geldanamycin)]: -8.89%, 53.86%, -13.53% and 58.75%.
As to `CO[C@H]1/C=C\C=C(/C)C(=O)NC2=CC(=O)C(NCCN(C)C)=C(C[C@@H](C)C[C@H](OC)[C@H](O)[C@@H](C)/C=C(\C)[C@@H]1OC(N)=O)C2=O` [17-DMAG (Alvespimycin)], the “Plate 1 (% inhibition)” value was -4.95%, the “Plate 1 (% conversion)” value is reported as 52.04%, the “Plate 1-duplicate (% inhibition)” value was -6.36% and the “Plate 1-duplicate (% conversion)” value is listed as 55.19%.
As to `COc1cc(O)c2c(c1)/C=C/C[C@H](O)[C@H](O)C(=O)/C=C\C[C@H](C)OC2=O` [(5Z)-7-Oxozeaenol], the “Plate 1 (% inhibition)” value stood at 21.38%, the “Plate 1 (% conversion)” value is recorded as 39.88%, the “Plate 1-duplicate (% inhibition)” value worked out at 23.66% and the “Plate 1-duplicate (% conversion)” value is 40.31%.
Regarding `C[C@@H](C(=O)O)c1ccc(-c2ccccc2)c(F)c1` [(R)-Flurbiprofen (Tarenflurbil)], the “Plate 1 (% inhibition)” value was found to be 10.59%, the “Plate 1 (% conversion)” value was 44.86%, the “Plate 1-duplicate (% inhibition)” value was 16.18% and the “Plate 1-duplicate (% conversion)” value worked out at 44.01%.
The matching figures for `CC1(C)CCC(c2ccc(Cl)cc2)=C(CN2CCN(c3ccc(C(=O)NS(=O)(=O)c4ccc(N[C@H](CCN5CCOCC5)CSc5ccccc5)c(S(=O)(=O)C(F)(F)F)c4)cc3)CC2)C1` [ABT-263 (Navitoclax)]: 90.19%, 8.10%, 90.05% and 7.38%.
For `COc1ccc(S(=O)(=O)Nc2cccnc2Nc2ccc(O)cc2)cc1` [ABT-751], in that order: 4.88%, 47.50%, 8.62% and 47.77%.
Take `Cc1ccc(F)c(NC(=O)Nc2ccc(-c3cccc4[nH]nc(N)c34)cc2)c1` [ABT-869_Linifanib]: the “Plate 1 (% inhibition)” value worked out at 24.64%, the “Plate 1 (% conversion)” value was 38.37%, the “Plate 1-duplicate (% inhibition)” value is 34.65% and the “Plate 1-duplicate (% conversion)” value came out at 34.86%.
`C[C@]1(c2nc3c(C(N)=O)cccc3[nH]2)CCCN1` [ABT-888 (Veliparib)]: the “Plate 1 (% inhibition)” value stood at 6.01%, the “Plate 1 (% conversion)” value came out at 46.97%, the “Plate 1-duplicate (% inhibition)” value worked out at 4.15% and the “Plate 1-duplicate (% conversion)” value was determined as 49.98%.
The matching figures for `CC(C)(C)c1cc(NC(=O)Nc2ccc(-c3cn4c(n3)sc3cc(OCCN5CCOCC5)ccc34)cc2)no1` [AC220_Quizartinib]: -19.26%, 58.64%, -18.68% and 61.31%.
For `CNCc1ccc(-c2[nH]c3cc(F)cc4c3c2CCNC4=O)cc1` [AG-014699_Rucaparib], in that order: 17.02%, 41.89%, 9.37% and 47.39%.
For `Cc1ccc(C(=O)Nc2ccc(CN3CCN(C)CC3)c(C(F)(F)F)c2)cc1C#Cc1cnc2cccnn12` [AP24534 (Ponatinib)], in that order: -64.76%, 79.66%, -35.27% and 69.54%.
`O=C1NC(=O)[C@@H](c2cn3c4c(cccc24)CCC3)[C@@H]1c1c[nH]c2ccccc12` [ARQ 197_Tivantinib]: the “Plate 1 (% inhibition)” value is -6.95%, the “Plate 1 (% conversion)” value is given as 52.96%, the “Plate 1-duplicate (% inhibition)” value was -13.62% and the “Plate 1-duplicate (% conversion)” value was 58.79%.
For `Cn1cnc2c(F)c(Nc3ccc(Br)cc3F)c(C(=O)NOCCO)cc21` [ARRY-162_MEK-162], in that order: -1.29%, 50.34%, 1.23% and 51.43%.
For `O=C(NC[C@H](O)CO)c1ccncc1Nc1ccc(I)cc1F` [AS703026_Pimasertib], in that order: 12.00%, 44.21%, 9.34% and 47.41%.
As for `O=C(Nc1c[nH]nc1-c1nc2ccc(CN3CCOCC3)cc2[nH]1)NC1CC1` [AT9283], the “Plate 1 (% inhibition)” value is given as -0.09%, the “Plate 1 (% conversion)” value turned out to be 49.79%, the “Plate 1-duplicate (% inhibition)” value came to 2.46% and the “Plate 1-duplicate (% conversion)” value was 50.82%.
Take `CN[C@@H](C)C(=O)N[C@H]1CN(C(=O)CC(C)C)CC[C@H]2CC[C@@H](C(=O)NC(c3ccccc3)c3ccccc3)N2C1=O` [AT-406]: the “Plate 1 (% inhibition)” value is on record as 3.10%, the “Plate 1 (% conversion)” value amounted to 48.32%, the “Plate 1-duplicate (% inhibition)” value is -2.44% and the “Plate 1-duplicate (% conversion)” value turned out to be 53.25%.
For `COc1cc2nccc(Oc3ccc(NC(=O)Nc4cc(C)on4)c(Cl)c3)c2cc1OC` [AV-951 (Tivozanib)], in that order: 11.01%, 44.66%, 0.70% and 51.69%.
The matching figures for `CC[C@H](CC#N)OC(=O)N[C@@H](C)c1cccc(NC(=O)Nc2ccc(-c3cnco3)c(OC)c2)c1` [AVN944]: -7.04%, 53.00%, -8.24% and 56.13%.
The matching figures for `CCN(CCO)CCCOc1ccc2c(Nc3cc(CC(=O)Nc4cccc(F)c4)[nH]n3)ncnc2c1` [AZD1152-HQPA]: 1.19%, 49.20%, 0.26% and 51.91%.
As to `Cc1cc(Nc2nc(N[C@@H](C)c3ncc(F)cn3)ncc2Cl)n[nH]1` [AZD1480], the “Plate 1 (% inhibition)” value is -0.12%, the “Plate 1 (% conversion)” value is 49.81%, the “Plate 1-duplicate (% inhibition)” value is 6.11% and the “Plate 1-duplicate (% conversion)” value stood at 49.01%.
The matching figures for `CNC(=O)c1cccc(-c2ccc3c(N4CCOC[C@@H]4C)nc(N4CCOC[C@@H]4C)nc3n2)c1` [AZD2014]: 7.73%, 46.18%, 4.94% and 49.59%.
The matching figures for `Cn1cnc2c(F)c(Nc3ccc(Br)cc3Cl)c(C(=O)NOCCO)cc21` [AZD6244 (Selumetinib)]: 5.13%, 47.38%, 5.57% and 49.28%.
For `COc1ccc(-c2ccc3c(N4CCOC[C@@H]4C)nc(N4CCOC[C@@H]4C)nc3n2)cc1CO` [AZD8055], in that order: 0.34%, 49.59%, 4.92% and 49.60%.
Regarding `Cl.NC(=O)Nc1cc(-c2cccc(F)c2)sc1C(=O)N[C@H]1CCCNC1` [AZD 7762 hydrochloride], the “Plate 1 (% inhibition)” value came out at 14.30%, the “Plate 1 (% conversion)” value came out at 43.15%, the “Plate 1-duplicate (% inhibition)” value was found to be 4.66% and the “Plate 1-duplicate (% conversion)” value is reported as 49.73%.
For `C[C@]12CC[C@H](O)CC1=CC[C@@H]1[C@@H]2CC[C@]2(C)C(c3cccnc3)=CC[C@@H]12` [Abiraterone], in that order: 1.80%, 48.92%, 1.40% and 51.35%.
